Assay results taken from the OligoGym collection.
Values joined by “and” are separate entries in the source; they are usually repeats but may differ in a detail not shown here. Equal entries are not always repeated. After the bases stand the sugars from the 5' end (letter, count) and the backbone: PS all phosphorothioate, else s phosphorothioate and o phosphodiester by linkage. Methylation of C is not given here. e = 2'-O-(2-methoxyethyl) (MOE); k = constrained ethyl (cEt); d = 2'-deoxy (DNA); m = 2'-O-methyl

Molecular target: HSD17B13
Conditions: ASO, HepaRG

Sequence | target mRNA inhibition (1 µM) | also measured
CAGAUTATTATGTGAT (sugars k3 d1 m1 d8 k3, PS) | 32% | –
CAGCATCAAGACATTC (sugars k3 d10 k3, PS) | 72% and 70% | –
CAGCATCAAGACATTC (sugars kkdddddddddkekek, PS) | 62% | –
CAGCATTGTAATCTTG (sugars k3 d10 k3, PS) | 43% | –
CAGCCTTAGAGTGAAT (sugars k3 d10 k3, PS) | 82% | target mRNA inhibition (0.02 µM): 6%; target mRNA inhibition (0.078 µM): 23%; target mRNA inhibition (0.313 µM): 36%; target mRNA inhibition (1.25 µM): 73%; target mRNA inhibition (5 µM): 83%
CAGGGTGGTAACGGTG (sugars k3 d9 k3 e1, PS) | 39% | –
CAGGGTGGTAACGGTG (sugars kkdddddddddkekek, PS) | 49% | –
CAGGTTGAGATAAAGC (sugars kkdddddddddkekek, PS) | 53% | –
CAGTCTTAAACCTTCC (sugars k3 d1 m1 d8 k3, PS) | 59% | –
CAGTCTTAAACCTTCC (sugars k3 d9 k3 e1, PS) | 74% and 50% | target mRNA inhibition (0.02 µM): 0%; target mRNA inhibition (0.078 µM): 0%; target mRNA inhibition (0.313 µM): 47%; target mRNA inhibition (1.25 µM): 43%; target mRNA inhibition (5 µM): 79%
CAGTTTTCCTCATGAT (sugars k3 d10 k3, PS) | 65% | –
CATAACTTCATAGTGG (sugars k3 d1 m1 d8 k3, PS) | 38% | –
CATAAGAGCCAAACTG (sugars k3 d10 k3, PS) | 27% | –
CATAATAATAGCTCTA (sugars kkdddddddddkekek, PS) | 13% | –
CATAATCTTGTGCTTG (sugars k3 d10 k3, PS) | 37% | –
CATACCACATACCCAT (sugars k3 d10 k3, PS) | 0% | –
CATAGAACTAGAACTC (sugars k3 d10 k3, PS) | 19% | –
CATAGTTCAAATTGGA (sugars k3 d10 k3, PS) | 39% | –
CATAGTTTATATGGAT (sugars k3 d10 k3, PS) | 56% | –

Sequence | target mRNA inhibition (1 µM) | also measured
CATATCAATGCCTTAG (sugars k3 d10 k3, PS) | 29% | –
CATATCTTACTCTGTG (sugars k3 d10 k3, PS) | 47% | –
CATATGTGAAGAGCTG (sugars kkdddddddddkekek, PS) | 35% | –
CATCAAGCCCTTTTCA (sugars k3 d10 k3, PS) | 23% | –
CATCTTAAGATACCCA (sugars k3 d9 k3 e1, PS) | 76% | target mRNA inhibition (0.02 µM): 0%; target mRNA inhibition (0.078 µM): 23%; target mRNA inhibition (0.313 µM): 38%; target mRNA inhibition (1.25 µM): 64%; target mRNA inhibition (5 µM): 79%
CATCTTAAGATACCCA (sugars k3 d10 k3, PS) | 76% | target mRNA inhibition (0.02 µM): 0%; target mRNA inhibition (0.078 µM): 23%; target mRNA inhibition (0.313 µM): 46%; target mRNA inhibition (1.25 µM): 75%; target mRNA inhibition (5 µM): 90%
CATCUTAAGATACCCA (sugars k3 d1 m1 d8 k3, PS) | 56% | –
CATGATTAAGCAGAAT (sugars k3 d10 k3, PS) | 42% | –
CATTACATATCAATGC (sugars k3 d10 k3, PS) | 29% | –
CATTAGCAAGCTAAGA (sugars k3 d10 k3, PS) | 0% | –
CATTATCCTTACTCCC (sugars k3 d10 k3, PS) | 16% | –
CATTTGAAGTCTATAC (sugars k3 d10 k3, PS) | 21% | –
CATTTTTAATACGACT (sugars k3 d10 k3, PS) | 57% | –
CCAAACATGGATGTTA (sugars k3 d10 k3, PS) | 43% | –
CCAAAGATGAGAGTCT (sugars k3 d10 k3, PS) | 19% | –
CCAACCAAACTTCCAG (sugars k3 d9 k3 e1, PS) | 47% | –
CCAACCAAACTTCCAG (sugars k3 d10 k3, PS) | 70% | –
CCAACCCAAGCTACCT (sugars k3 d10 k3, PS) | 15% | –
